Results from US20100048633A1, “Piperidine-4-acrylamides” (priority 2007, published 2010).

What was measured:
human CCR3 = biological target: T1, human CCR3 (Homo sapiens, UniProt P51677); experiment: binding of [125I]-human eotaxin to human CCR3 (SPA, membranes of RBL-2H3 cells expressing CCR3); details: [125I]-human eotaxin 50 pM, 4 hours at room temperature; read-out: IC50 (concentration of test compound at which 50% inhibition of eotaxin binding to CCR3 occurs)
T1 construct: expressed in transfected cells; membranes
T1 sequence (P51677 1-355): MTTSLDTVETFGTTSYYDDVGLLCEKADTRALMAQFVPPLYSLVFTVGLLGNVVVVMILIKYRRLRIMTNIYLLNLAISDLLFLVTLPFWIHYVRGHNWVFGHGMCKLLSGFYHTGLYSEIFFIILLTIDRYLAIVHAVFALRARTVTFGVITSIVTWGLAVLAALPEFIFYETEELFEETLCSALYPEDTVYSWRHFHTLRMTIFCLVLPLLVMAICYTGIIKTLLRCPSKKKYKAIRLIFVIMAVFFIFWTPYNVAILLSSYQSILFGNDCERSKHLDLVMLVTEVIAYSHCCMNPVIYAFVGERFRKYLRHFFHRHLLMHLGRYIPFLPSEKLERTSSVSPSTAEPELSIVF
Protocol: In this assay the effect of the compounds of the present invention on the binding of human eotaxin to human CCR3 is determined. Recombinant cells expressing human CCR3 are captured by wheatgerm agglutinin (WGA) polyvinyltoluidene (PVT) SPA beads (available from Amersham), through a specific interaction between the WGA and carbohydrate residues of glycoproteins on the surface of the cells. [^125I]-human eotaxin (available from Amersham) binds specifically to CCR3 receptors bringing the [^125I]-human eotaxin in close proximity to the SPA beads. Emitted â-particles from the [^125I]-human eotaxin excite, by its proximity, the fluorophore in the beads and produce light.
Preparation of Assay Buffer 5.96 g HEPES and 7.0 g sodium chloride are dissolved in distilled H2O and 1 M aq. CaCl2 (1 ml) and 1 M aq. MgCl2 (5 ml) are added. The pH is adjusted to 7.6 with NaOH and the solution made to a final volume of 1 L using distilled H2O. 5 g of bovine serum albumin and 0.1 g NaN3 are dissolved in the solution and the resulting buffer stored at 4° C. […]
The assay is performed in a final volume of 250 μl per well of an Optiplate™ microplate (ex Canberra Packard). […] The resulting scintillations are counted using a Canberra Packard TopCount™ scintillation counter, each well being counted for 1 minute. […]

SMILES	melting point [°C]	IC50 (human CCR3) [nM]
O=C(C=C1CCN(Cc2ccc(F)cc2)CC1)NCc1ccc(F)c(F)c1 [Example 1, N-(3,4-Difluoro-benzyl)-2-[1-(4-fluoro-benzyl)-piperidin-4-ylidene]-acetamide]	83 to 85	–
O=C(C=C1CCN(CCc2ccc(F)cc2)CC1)NCc1ccc(F)c(F)c1 [Example 17, N-(3,4-Difluoro-benzyl)-2-{1-[2-(4-fluoro-phenyl)-ethyl]-piperidin-4-ylidene}-acetamide]	117 to 120	~200
